The record followed here is BindingDB's records for doi:10.1021/acs.jnatprod.7b00282 (Chiba University, 2017).

A short description of this experiment: Inhibition of recombinant mouse N-terminal FLAG-tagged Notch1 (1704 to 2531 residues) expressed in human LS174T cells assessed as reduction in doxycycline-induced NICD expression after 12 hrs by Bright-Glo luciferase reporter gene assay.

For `C[C@@H]1C[C@@]2(N=CCS2)[C@]2(O)O[C@@H]3C[C@@]4(C=O)[C@@H](CC[C@@H]5[C@@H]4CC[C@]4(C)[C@@H](C6=CC(=O)OC6)[C@H](O)C[C@]54O)C[C@H]3O[C@@H]2O1`, the IC50 came out at 700 nM. Next, `C[C@@H]1C[C@@]2(NCCS2)[C@]2(O)O[C@@H]3C[C@@]4(C=O)[C@@H](CC[C@@H]5[C@@H]4CC[C@]4(C)[C@@H](C6=CC(=O)OC6)CC[C@]54O)C[C@H]3O[C@@H]2O1`: 2000 nM. With `C[C@@H]1C[C@@]2(NC(=O)CS2)[C@]2(O)O[C@@H]3C[C@@]4(C=O)[C@@H](CC[C@@H]5[C@@H]4CC[C@]4(C)[C@@H](C6=CC(=O)OC6)CC[C@]54O)C[C@H]3O[C@@H]2O1`, the half-inhibitory concentration (IC50) is 300 nM.

Regarding `COC(=O)[C@@]1(O)C[C@@H](C)O[C@H]1O[C@@H]1C[C@@H]2CC[C@@H]3[C@H](CC[C@]4(C)[C@@H](C5=CC(=O)OC5)[C@H](O)C[C@]34O)[C@@]2(C=O)C[C@H]1O`, the IC50 came out at 17300 nM. In the case of `CC(=O)O[C@H]1C[C@@H](C)O[C@H]2O[C@@H]3C[C@@H]4CC[C@@H]5[C@H](CC[C@]6(C)[C@@H](C7=CC(=O)OC7)CC[C@]56O)[C@@]4(C=O)C[C@H]3O[C@]21O` [CHEBI:2867] it was 300 nM; in that of `C[C@@H]1C[C@H](O)[C@]2(O)O[C@@H]3C[C@@]4(C=O)[C@@H](CC[C@@H]5[C@@H]4CC[C@]4(C)[C@@H](C6=CC(=O)OC6)CC[C@]54O)C[C@H]3O[C@@H]2O1` [CHEBI:3329], 800 nM; in that of `C[C@@H]1CC(=O)[C@]2(O)O[C@@H]3C[C@@]4(C=O)[C@@H](CC[C@@H]5[C@@H]4CC[C@]4(C)[C@@H](C6=CC(=O)OC6)CC[C@]54O)C[C@H]3O[C@@H]2O1` [CHEBI:9913], 2400 nM.

`C[C@@H]1C[C@@]2(N=CCS2)[C@]2(O)O[C@@H]3C[C@@]4(C=O)[C@@H](CC[C@@H]5[C@@H]4CC[C@]4(C)[C@@H](C6=CC(=O)OC6)CC[C@]54O)C[C@H]3O[C@@H]2O1` [Uscharin]: the half-maximal inhibitory concentration (IC50) worked out at 400 nM.
